We go through 27 compounds from patent publication US10519162B2, “6,7-dihydropyrazolo[1,5-α]pyrazin-4(5H)-one compounds and their use as negative allosteric modulators of mGluR2 receptors” (Janssen Pharmaceutica NV, priority 2014, dated 2019).

Data set [1] concerns rats. Briefly: Reversal of the effect of the mGluR2 PAM JNJ-42153605-induced inhibition of scopolamine-induced hyperlocomotion (SCOP JNJ-42153605). Format: in vivo, rat. To be noted: Rattus norvegicus; PO (oral route); rats; reversal criterion total distance >1500 cm. The protocol:
2) Reversal of the Effect of the mGluR2 PAM JNJ-42153605-Induced Inhibition of Scopolamine-Induced Hyperlocomotion Apparatus
Motor activity was measured in microprocessor-based motor activity arenas (closed gray PVC cylinders with a height of 39 cm and a diameter of 31 cm). Each arena was placed on an infrared LED (8×8 LEDs) lit box (white PVC squared box; 40×40 cm^2; height 12.5 cm. An infrared-sensitive tube camera and a white light source were mounted to the ceiling above the observation chamber to track the animal. The total distance traveled (cm) was recorded and analyzed using the Noldus Ethovision XT Video Tracking System (Version 7.0.418; Noldus, Wageningen, The Netherlands). The intensity of the light within the activity cages (measured in the centre at the level of the floor) ranged between 4 and 8 LUX.
The rats were pretreated with test compound or vehicle at 60 min before the start of the activity recordings and placed into individual cages. The rats were challenged with JNJ-42153605 (3-(cyclopropylmethyl)-7-(4-phenylpiperidin-1-yl)-8-(trifluoromethyl)[1,2,4]triazolo[4,3-a]pyridine; WO2010/130424; Cid et al. J. Med. Chem. 2012, 55, 8770-8789) (20 mg/kg, i.v.) 30 min before the start of the activity recording combined with scopolamine (0.16 mg/kg, i.v.) just before the start of the activity measurements. Immediately after the injection of scopolamine, the rats were placed into the activity monitors and total distance travelled over the first 30 min was measured.
Solvent-Pretreated Control Rats.
Animals receiving the combination of JNJ-42153605 and scopolamine (n=433) almost always travelled a distance of less than 1500 cm (<1500 cm) (only 2.5% of the control rats travelled a distance of more than 1500 cm (>1500 cm)). On the other hand, animals challenged with scopolamine alone (n=215) always travelled a total distance of more than 1500 cm (>1500 cm) and almost always (in 95.8% of the rats) a distance of more than 4400 cm (>4400 cm). […] For reversal of the inhibitory effect of JNJ-42153605 on the scopolamine-induced hyperlocomotion, the following all-or-none criteria were adopted: (1) reversal: total distance >1500 cm.

In data set [2] the test system is Wiga rats. Briefly: Induction of mydriasis (MYD). Format: in vivo. To be noted: Rattus norvegicus, PO (oral route), pupil diameter >25 units, 1-3 h post-administration. The method, then:
3) Induction of Mydriasis
The pupil diameter of Wiga rats was measured with a microscopic micrometer (1 unit=1/24 mm). Criteria for drug-induced effects: pupil diameter >25 units for mydriasis (in controls: 1.9%) 1, 2 or 3 h post-administration of the test compound (wherein the maximum pupil diameter over the full 3 h period is reported).

Data set [3] concerns the target T1, human mGlu2 receptor (Homo sapiens, UniProt Q14416).
T1 construct: expressed in transfected cells; host or cells: CHO cells
Nature of the data set: [35S]GTPγS binding assay (mGluR2 negative allosteric modulation, glutamate ~EC80 60 μM). To be noted: for Emax: maximal % inhibition relative to the control glutamate response (EC80 glutamate), read-out: GTPγS-hmGluR2 anGT Emax; for IC50: membranes from CHO cells transfected with human mGlu2 receptor, glutamate ~EC80 (60 μM), pIC50 = −log IC50 (M), read-out: GTPγS-hmGluR2 anGT pIC50 (converted). Format: biochemical. The method, then:
1) [^35S]GTPγS Binding Assay
[^35S]GTPγS Binding Assay
Total reaction volume was 200 μl. […] Membrane-bound radioactivity was counted in a Topcount.

The ED50 is the dose that gives a 50% effect, or the effect in half of the subjects. Usually melting point stands for the temperature of the solid-liquid transition. The Emax is the maximal effect, on the per cent scale that the assay sets.

T1 sequence (Q14416 19-872): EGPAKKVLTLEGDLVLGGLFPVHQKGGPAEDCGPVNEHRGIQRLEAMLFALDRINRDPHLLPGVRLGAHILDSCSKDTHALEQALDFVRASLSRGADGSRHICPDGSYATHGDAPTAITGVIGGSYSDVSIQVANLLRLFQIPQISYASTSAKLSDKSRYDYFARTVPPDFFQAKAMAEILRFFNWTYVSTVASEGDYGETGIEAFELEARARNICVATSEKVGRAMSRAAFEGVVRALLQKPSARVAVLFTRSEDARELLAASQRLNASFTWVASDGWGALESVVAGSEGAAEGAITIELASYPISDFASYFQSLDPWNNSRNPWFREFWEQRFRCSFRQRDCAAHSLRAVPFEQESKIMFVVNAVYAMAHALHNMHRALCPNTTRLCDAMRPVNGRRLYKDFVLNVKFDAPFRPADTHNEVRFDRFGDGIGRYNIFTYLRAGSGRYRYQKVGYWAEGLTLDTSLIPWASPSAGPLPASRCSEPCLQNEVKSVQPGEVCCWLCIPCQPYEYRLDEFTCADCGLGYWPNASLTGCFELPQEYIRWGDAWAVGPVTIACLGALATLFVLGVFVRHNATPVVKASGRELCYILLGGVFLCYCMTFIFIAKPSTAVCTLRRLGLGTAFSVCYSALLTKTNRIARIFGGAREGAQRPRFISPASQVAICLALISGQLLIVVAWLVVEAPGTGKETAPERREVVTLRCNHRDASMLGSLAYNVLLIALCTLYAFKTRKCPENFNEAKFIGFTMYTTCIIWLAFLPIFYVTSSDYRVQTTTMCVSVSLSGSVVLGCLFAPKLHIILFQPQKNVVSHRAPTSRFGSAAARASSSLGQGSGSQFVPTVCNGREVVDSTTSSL

Regarding `Cc1cc(C(=O)Nc2cnn3c2C(=O)N(c2ccc(C(F)(F)F)cc2)C[C@@H]3C)cnc1N` (racemic) [Co. No. 187], the melting point amounted to 277.76 °C. Further, the ED50 in data set [1] turned out to be 0.0794 mg/kg. In addition, the ED50 in data set [2] was more than 10 mg/kg. Also, in data set [3], the Emax was found to be 109% and the IC50 was 1.51e-09 M.
Turning to `C[C@H]1CN(c2ccc(C(F)(F)F)c(Cl)c2)C(=O)c2c(NC(=O)c3cccnc3)cnn21` [Co. No. 100], the melting point was 157.47 °C. The ED50 in data set [1] came out at 0.8 mg/kg. Moreover, the ED50 in data set [2] was more than 2.5 mg/kg. Further, in data set [3], the Emax was determined as 106% and the IC50 was 2.19e-09 M.
The corresponding values for `C[C@H]1CN(c2ccc(Cl)c(Cl)c2)C(=O)c2c(NC(=O)c3cnccn3)cnn21` [Co. No. 104] are 201.39 °C, 0.32 mg/kg, 6.6 mg/kg, 107% and 1.82e-09 M.
The compound `Cc1cc(C(=O)Nc2cnn3c2C(=O)N(c2ccc(C(F)(F)F)c(C)c2)C[C@@H]3C)cc(C)n1` [Co. No. 113] gave a melting point of 164.61 °C. In addition, in data set [1], the ED50 stood at 0.5 mg/kg. Further, in data set [2], the ED50 was more than 40 mg/kg. For the same compound, in data set [3], the Emax is 107% and the IC50 is 2.04e-09 M.
`C[C@H]1CN(c2ccc(C(F)(F)F)c(F)c2)C(=O)c2c(NC(=O)c3cnccn3)cnn21` [Co. No. 127]: the melting point came to 236.55 °C. The ED50 in data set [1] is more than 0.63 mg/kg. In addition, in data set [3], the Emax was determined as 104% and the IC50 is 6.61e-09 M.
In turn, `Cc1cncc(C(=O)Nc2cnn3c2C(=O)N(c2ccc(C(F)(F)F)c(F)c2)C[C@@H]3C)c1` [Co. No. 128] registered a melting point of 163.67 °C. Further, the ED50 in data set [1] is more than 0.63 mg/kg. Also, in data set [3], the Emax was determined as 103% and the IC50 was 6.92e-09 M.
Regarding `COc1cc(N2C[C@H](C)n3ncc(NC(=O)c4cccnc4)c3C2=O)ccc1C(F)(F)F` [Co. No. 147], the melting point is 186.11 °C. The ED50 in data set [1] is more than 0.63 mg/kg. Moreover, in data set [3], the Emax turned out to be 106% and the IC50 was 1.07e-08 M.
The corresponding values for `COc1cncc(C(=O)Nc2cnn3c2C(=O)N(c2ccc(Cl)c(Cl)c2)C[C@@H]3C)c1` [Co. No. 149] are 184.46 °C, more than 0.63 mg/kg, 107% and 1.66e-09 M.
In the case of `COc1cncc(C(=O)Nc2cnn3c2C(=O)N(c2ccc(C(F)(F)F)c(Cl)c2)C[C@@H]3C)c1` [Co. No. 150], the melting point stood at 133.07 °C. In addition, in data set [1], the ED50 was more than 0.63 mg/kg. In addition, in data set [3], the Emax came out at 107% and the IC50 was 1.66e-09 M.
On the same counts, the results for `COc1cncc(C(=O)Nc2cnn3c2C(=O)N(c2ccc(C(F)(F)F)c(C)c2)C[C@@H]3C)c1` [Co. No. 151] are 135.98 °C, more than 0.63 mg/kg, 106% and 3.16e-09 M.
The corresponding values for `COc1cncc(C(=O)Nc2cnn3c2C(=O)N(c2ccc(C(F)(F)F)c(OC)c2)C[C@@H]3C)c1` [Co. No. 152] are 115.19 °C, more than 0.63 mg/kg, 106% and 9.77e-09 M.
Turning to `COc1cncc(C(=O)Nc2cnn3c2C(=O)N(c2ccc(C(F)(F)F)c(F)c2)C[C@@H]3C)c1` [Co. No. 153], the melting point stood at 143.17 °C. The ED50 in data set [1] was more than 0.63 mg/kg. Besides, in data set [3], the Emax came out at 106% and the IC50 was 1.35e-08 M.
For the compound `Cc1cc(C(=O)Nc2cnn3c2C(=O)N(c2ccc(C(F)(F)F)c(Cl)c2)C[C@@H]3C)cc(C)n1` [Co. No. 172], the ED50 in data set [1] was 0.32 mg/kg. This compound also returned an ED50 in data set [2] of more than 40 mg/kg. In addition, in data set [3], the Emax was 110% and the IC50 is 1.32e-09 M.
`C[C@H]1CN(c2ccc(S(F)(F)(F)(F)F)cc2)C(=O)c2c(NC(=O)c3cccnc3)cnn21` [Co. No. 175] had a melting point of 205.19 °C. Besides, in data set [1], the ED50 turned out to be 0.318 mg/kg. In data set [2], the ED50 is more than 10 mg/kg. Also, in data set [3], the Emax was found to be 108% and the IC50 was 3.16e-09 M.
Take `C[C@H]1CN(c2ccc(C(F)(F)F)cc2)C(=O)c2c(NC(=O)c3cccc(S(N)(=O)=O)c3)cnn21` [Co. No. 177]: the melting point was 280.43 °C. The ED50 in data set [1] was more than 0.63 mg/kg. Besides, in data set [3], the Emax came out at 109% and the IC50 is 1.66e-09 M.
With `C[C@H]1CN(c2ccc(SC(F)(F)F)cc2)C(=O)c2c(NC(=O)c3cccnc3)cnn21` [Co. No. 179], the melting point worked out at 110.73 °C. In addition, in data set [1], the ED50 is more than 0.63 mg/kg. In data set [3], the maximum response (Emax) was 106% and the IC50 was 5.89e-09 M.
The corresponding values for `Cc1cc(C(=O)Nc2cnn3c2C(=O)N(c2ccc(C(F)(F)F)c(Cl)c2)C[C@@H]3C)nc(N)n1` [Co. No. 181] are 258.12 °C, more than 0.63 mg/kg, 101% and 5.75e-09 M.
`COc1cncc(C(=O)Nc2cnn3c2C(=O)N(c2ccc(C(F)(F)F)cc2)C[C@@H]3C)n1` [Co. No. 183] showed a melting point of 185.23 °C. Also, in data set [1], the ED50 was 0.318 mg/kg. Further, in data set [3], the Emax came to 114% and the IC50 was 2.24e-09 M.
As for `CNc1ncccc1C(=O)Nc1cnn2c1C(=O)N(c1ccc(C(F)(F)F)cc1)C[C@@H]2C` [Co. No. 194], the melting point is 161.97 °C. Moreover, in data set [1], the ED50 came out at 0.318 mg/kg. In data set [3], the maximal response (Emax) is 113% and the IC50 was 1.29e-09 M.
The corresponding values for `C[C@H]1CN(c2ccc(Cl)cc2)C(=O)c2c(NC(=O)c3cccnc3N)cnn21` [Co. No. 198] are 209.11 °C, more than 0.63 mg/kg, 109% and 4.07e-09 M.
On the same counts, the results for `Cc1cnc(N)c(C(=O)Nc2cnn3c2C(=O)N(c2ccc(Cl)c(Cl)c2)C[C@@H]3C)c1` [Co. No. 199] are 220.49 °C, 0.08 mg/kg, 109% and 9.77e-10 M.
As for `Cc1cnc(N)c(C(=O)Nc2cnn3c2C(=O)N(c2ccc(S(F)(F)(F)(F)F)cc2)C[C@@H]3C)c1` [Co. No. 200], the melting point came out at 197.51 °C. Moreover, in data set [1], the ED50 is more than 0.63 mg/kg. For the same compound, in data set [3], the Emax was found to be 111% and the IC50 was 1.48e-09 M.
Consider `C[C@H]1CN(c2ccc(S(F)(F)(F)(F)F)cc2)C(=O)c2c(NC(=O)c3cccnc3N)cnn21` [Co. No. 202], for which the melting point turned out to be 223.96 °C. Moreover, in data set [1], the ED50 was 0.2 mg/kg. For the same compound, in data set [3], the Emax stood at 108% and the IC50 is 1.15e-09 M.
`Cc1cc(C(=O)Nc2cnn3c2C(=O)N(c2ccc(Cl)cc2)C[C@@H]3C)cc(N)n1` [Co. No. 203] returned a melting point of 223.01 °C. The 50% effective dose (ED50) in data set [1] was more than 0.63 mg/kg. Besides, in data set [3], the Emax was 105% and the IC50 was 1.12e-08 M.
The corresponding values for `C[C@H]1CN(c2ccc(C(F)(F)F)cc2)C(=O)c2c(NC(=O)c3ccc(N)cc3)cnn21` [Co. No. 204] are 250.78 °C, 0.318 mg/kg, 107% and 2.82e-09 M.
The corresponding values for `C[C@H]1CN(c2ccc(C(F)(F)F)cc2)C(=O)c2c(NC(=O)c3nccnc3N)cnn21` [Co. No. 206, 3-Amino-N-[(7S)-7-methyl-4-oxo-5-[4-(trifluoromethyl)phenyl]-6,7-dihydropyrazolo[1,5-a]pyrazin-3-yl]pyrazine-2-carboxamide] are 205.79 °C, 0.505 mg/kg, 110% and 3.02e-09 M.
The corresponding values for `C[C@H]1CN(c2ccc(C(F)(F)F)c(CF)c2)C(=O)c2c(NC(=O)c3cccnc3N)cnn21` [Co. No. 210] are 176.26 °C, 0.32 mg/kg, 106% and 2.09e-09 M.
